Reference: publication PMC5507300, “Antibacterial small molecules targeting the conserved TOPRIM domain of DNA gyrase” (PLoS ONE, 2017)

Columns and labels:
[1] = tested on: DNA synthesis in E. coli JL553; assay: Macromolecule synthesis labeling; assay type: cell-based; conditions: E. coli JL553, 25 min exposure, labeled precursor incorporation
Experimental: Macromolecule synthesis profiling was conducted as described by Montgomery, et al. with minor modifications. E. coli strain JL553 (tolC, lysE) was used to measure inhibition of DNA, RNA, protein, peptidoglycan and phospholipid biosynthesis while E. coli MB5500 (lpxC [envA1], galE; Merck & Co., Inc., Kenilworth, NJ, USA, strain collection) was used to measure inhibition of lipopolysaccharide biosynthesis. Radioisotope labeled precursors were used at the following final concentrations [2-^14C]-thymidine (2.5 μCi/mL), [^14C(U)]-uridine (0.5 μCi/mL), L-[4, 5-^3H]-leucine (5 μCi/mL), [2-^3H]-glycerol (2 μCi/mL), [^3H]-diaminopimelic acid (3 μCi/mL), D-[1-^14C]-galactose (0.5 μCi/mL). Compound concentrations (3-fold serial dilutions) were chosen to place the minimum inhibitory concentration (see below) near the center of the dose range. Labeled cultures were incubated with compound for 25 min; stopped with trichloroacetic acid, filtered and incorporation was measured as described. Percent inhibition of incorporation was calculated relative to an untreated control culture for each labeled precursor and plotted with GraphPad Prism.

[2] = molecular target: T1, E. coli DNA gyrase GyrB (F513L) (Escherichia coli, UniProt P0AES6, F513L); assay: Gel supercoiling assay, reconstituted GyrB (F513L) gyrase; assay type: biochemical
T1 construct: His6 tag followed by TEV site (X1: […]) (N, cleaved yes); made in house; host or cells: E. coli BL21(DE3) RIL
Experimental: (§1) Conditions to measure the supercoiling of a relaxed, closed-circular plasmid substrate and cleavage complex stabilization in agarose gels were adapted from the literature and carried out as described below. Plasmid supercoiling reactions were assembled by combining 0.4 μL compound (in 100% DMSO), 12.5 μL H2O, 4 μL 5Xbuffer, 0.4 μL relaxed pUC19 DNA substrate (0.5 μg), […] dilute DNA gyrase (buffer, substrate, and enzyme from New England Biolabs, Beverly, MA). Alternatively the substrate pHOT-1 (TopoGEN, Buena Vista, CO) was used as noted (the substrate from New England Biolabs has been discontinued). P. aeruginosa DNA gyrase was supplied by Inspiralis, Norwich, UK. […] The gel was illuminated with UV light, photographed, and DNA quantitated with an Alpha Imager and accompanying software (ProteinSimple, San Jose, CA). […]
(§2) The E. coli gyrA and gyrB (wild-type and t1537c (F513L)) genes with a N-terminal His6 tag sequence followed by Tobacco Etch Virus (TEV) cleavage site ([…]) were cloned into pET28(+) vector (EMD Millipore). […] Fractions containing gyrase subunit protein (as monitored by sodium dodecyl sulfate polyacrylamide gel electrophoresis (SDS-PAGE)) were pooled and loaded onto a Q-Sepharose column (GE Healthcare, Princeton, NJ, USA) equilibrated in 20 mM Tris-HCl (pH = 7.9), 25mM NaCl, 10% glycerol, and 2 mM β-mercaptoethanol. […]

[3] = molecular target: T2, wild-type E. coli DNA gyrase (recombinant GyrA/GyrB) (Escherichia coli, UniProt P0AES6); assay: Gel supercoiling assay, reconstituted wild-type gyrase; assay type: biochemical
T2 construct: made in house; host or cells: E. coli BL21(DE3) RIL
Experimental: as §1, §2

## COc1ccc(C)cc1NC(=O)N1CCC(n2nncc2-c2ccc3c(cnn3C)c2)CC1 [MRL-770]
[1]
  inhibition of macromolecule synthesis: selective and reproducible inhibition of DNA synthesis

## Cn1ncc2cc(-c3nnnn3C3CCN(C(=O)Nc4ccc(Cl)c(Cl)c4)CC3)ccc21 [MRL-1082]
[2]
  IC50: > 200 µM
[3]
  IC50: ~3.5 µM
